Species: Rattus norvegicus
Experiment: Open TG-GATES - Regimen: Single
Type: toxicity, organism-based, Sprague-Dawley
Design: regimen Single, gender Male, age 6 weeks
Settings: in vivo, po, route gavage; for gamma-GTP / ALP / ALT / AST / BUN / CRE / Ca / DBIL / GLC / IP / K / LDH / Na / PL / RALB / TBIL / TC / TG / TP: tissue Plasma; for APTT / Bas / Eos / Fbg / Hb / Ht / Lym / MCH / MCHC / MCV / Mono / Neu / PT / Plat / RBC / Ret / WBC: tissue Blood; for KIDNEY_L / KIDNEY_R / KIDNEY_TOTAL: tissue Kidney

For `CSc1ccc2c(c1)N(CCC1CCCCN1C)c1ccccc1S2` (stereo unspecified) [THIORIDAZINE], the gamma-GTP (0 mg/kg, 24 h, dose level Control) was 1.2 IU/L, the TERMINAL_BW (10 mg/kg, 3 h, dose level Low) was 216.5 g and the APTT (10 mg/kg, 3 h, dose level Low) was 16.2 s. The Bas (10 mg/kg, 3 h, dose level Low) was 0%, the Eos (10 mg/kg, 3 h, dose level Low) was 0.6% and the Fbg (10 mg/kg, 3 h, dose level Low) was 201 mg/dL. It also gave a Hb (10 mg/kg, 3 h, dose level Low) of 12.6 g/dL, a Ht (10 mg/kg, 3 h, dose level Low) of 37.5% and a Lym (10 mg/kg, 3 h, dose level Low) of 77%. The MCH (10 mg/kg, 3 h, dose level Low) was 22.5 pg, the MCHC (10 mg/kg, 3 h, dose level Low) was 33.6% and the MCV (10 mg/kg, 3 h, dose level Low) was 67.1 fL. The Mono (10 mg/kg, 3 h, dose level Low) was 9.8%, the Neu (10 mg/kg, 3 h, dose level Low) was 13% and the PT (10 mg/kg, 3 h, dose level Low) was 12.2 s. The Plat (10 mg/kg, 3 h, dose level Low) was 94.9 x10_4/uL, the RBC (10 mg/kg, 3 h, dose level Low) was 560.4 x10_4/ul and the Ret (10 mg/kg, 3 h, dose level Low) was 8%. It also gave a WBC (10 mg/kg, 3 h, dose level Low) of 87.7 x10_2/uL, a KIDNEY_L (10 mg/kg, 3 h, dose level Low) of 1 g and a KIDNEY_R (10 mg/kg, 3 h, dose level Low) of 1 g. The KIDNEY_TOTAL (10 mg/kg, 3 h, dose level Low) was 2 g, the LIVER (10 mg/kg, 3 h, tissue Liver, dose level Low) was 10.5 g and the ALP (10 mg/kg, 3 h, dose level Low) was 973.8 IU/L. The ALT (10 mg/kg, 3 h, dose level Low) was 36.8 IU/L, the AST (10 mg/kg, 3 h, dose level Low) was 65.4 IU/L and the BUN (10 mg/kg, 3 h, dose level Low) was 13.2 mg/dL. The CRE (10 mg/kg, 3 h, dose level Low) was 0.5 mg/dL, the Ca (10 mg/kg, 3 h, dose level Low) was 11.2 mg/dL and the DBIL (10 mg/kg, 3 h, dose level Low) was 0.016 mg/dL. It also gave a GLC (10 mg/kg, 3 h, dose level Low) of 205.6 mg/dL, an IP (10 mg/kg, 3 h, dose level Low) of 10.7 mg/dL and a K (10 mg/kg, 3 h, dose level Low) of 5.1 meq/L. It also gave an LDH (10 mg/kg, 3 h, dose level Low) of 95 IU/L, a Na (10 mg/kg, 3 h, dose level Low) of 139.4 meq/L and a PL (10 mg/kg, 3 h, dose level Low) of 140.2 mg/dL. The RALB (10 mg/kg, 3 h, dose level Low) was 3.7 g/dL, the TBIL (10 mg/kg, 3 h, dose level Low) was 0.3 mg/dL and the TC (10 mg/kg, 3 h, dose level Low) was 76.8 mg/dL. For the same compound, the TG (10 mg/kg, 3 h, dose level Low) was 69.2 mg/dL, the TP (10 mg/kg, 3 h, dose level Low) was 5.3 g/dL and the gamma-GTP (10 mg/kg, 3 h, dose level Low) was 0.8 IU/L. The TERMINAL_BW (10 mg/kg, 6 h, dose level Low) was 214.5 g, the APTT (10 mg/kg, 6 h, dose level Low) was 16.8 s and the Bas (10 mg/kg, 6 h, dose level Low) was 0%. The Eos (10 mg/kg, 6 h, dose level Low) was 1%, the Fbg (10 mg/kg, 6 h, dose level Low) was 210.6 mg/dL and the Hb (10 mg/kg, 6 h, dose level Low) was 13.1 g/dL. For the same compound, the Ht (10 mg/kg, 6 h, dose level Low) was 39%, the Lym (10 mg/kg, 6 h, dose level Low) was 78.8% and the MCH (10 mg/kg, 6 h, dose level Low) was 22 pg. It also gave an MCHC (10 mg/kg, 6 h, dose level Low) of 33.5%, an MCV (10 mg/kg, 6 h, dose level Low) of 65.8 fL and a Mono (10 mg/kg, 6 h, dose level Low) of 8.6%. For the same compound, the Neu (10 mg/kg, 6 h, dose level Low) was 12%, the PT (10 mg/kg, 6 h, dose level Low) was 12.2 s and the Plat (10 mg/kg, 6 h, dose level Low) was 109 x10_4/uL. The RBC (10 mg/kg, 6 h, dose level Low) was 593 x10_4/ul, the Ret (10 mg/kg, 6 h, dose level Low) was 8.6% and the WBC (10 mg/kg, 6 h, dose level Low) was 129.7 x10_2/uL. The KIDNEY_L (10 mg/kg, 6 h, dose level Low) was 1 g, the KIDNEY_R (10 mg/kg, 6 h, dose level Low) was 1 g and the KIDNEY_TOTAL (10 mg/kg, 6 h, dose level Low) was 2 g. For the same compound, the ALP (10 mg/kg, 6 h, dose level Low) was 779.8 IU/L, the ALT (10 mg/kg, 6 h, dose level Low) was 27.6 IU/L and the AST (10 mg/kg, 6 h, dose level Low) was 62.4 IU/L. The BUN (10 mg/kg, 6 h, dose level Low) was 11.8 mg/dL, the CRE (10 mg/kg, 6 h, dose level Low) was 0.5 mg/dL and the Ca (10 mg/kg, 6 h, dose level Low) was 10.8 mg/dL. For the same compound, the DBIL (10 mg/kg, 6 h, dose level Low) was 0.022 mg/dL, the GLC (10 mg/kg, 6 h, dose level Low) was 192.4 mg/dL and the IP (10 mg/kg, 6 h, dose level Low) was 10.2 mg/dL. For the same compound, the K (10 mg/kg, 6 h, dose level Low) was 4.9 meq/L, the LDH (10 mg/kg, 6 h, dose level Low) was 94 IU/L and the Na (10 mg/kg, 6 h, dose level Low) was 138.8 meq/L. The PL (10 mg/kg, 6 h, dose level Low) was 136.4 mg/dL, the RALB (10 mg/kg, 6 h, dose level Low) was 3.7 g/dL and the TBIL (10 mg/kg, 6 h, dose level Low) was 0.4 mg/dL. The TC (10 mg/kg, 6 h, dose level Low) was 71.6 mg/dL, the TG (10 mg/kg, 6 h, dose level Low) was 60.2 mg/dL and the TP (10 mg/kg, 6 h, dose level Low) was 5.4 g/dL.

From ChEMBL document CHEMBL3885861, “Open TG-GATES”
